System: cell-free protein synthesis
Assay: Cell-free protein synthesis assay (luciferase, coupled transcription/translation)
Format: biochemical
Parameters: key to Activity in luciferase assay: ++: same or higher than WT protein.; +: within 2-fold of WT activity.; +/−: within 3-fold of WT activity.; −−: less than one-third of WT activity
Conditions: for Activity in luciferase assay: relative to wild-type protein
Source text: The term “biological activity” as used herein is the ability of the modified or non-modified bouganin protein to inhibit protein synthesis on ribosomes, which can be assessed in a number of ways. It should be noted that a modified bouganin protein will still have biological activity even if such activity is lower than that of the non-modified protein, however it would need to have some level of detectable activity. For example, the biological activity of the modified or non-modified bouganin protein can be assessed by identifying their N-glycosidase activity, and in particular with sufficient activity to provide significant inhibition of protein translation. One such suitable assay involves testing the activity of the variant bouganin proteins in comparison to non-modified bouganin in a cell-free protein synthesis assay. A coupled transcription/translation mix containing methionine, DNA encoding the reporter protein luciferase and serial dilutions of non-modified and modified bouganin protein are co-incubated. The levels of translated luciferase are readily detected using a luminescence counter following addition of a substrate reagent. The measured luminescence is inversely proportional to the bouganin N-glycosidase activity present in the reaction. It is usual to provide a negative control such as an in-active bouganin protein, for example containing a Y70A substitution.
The biological activity of the proteins of the invention can equally be assessed in many ways. In one embodiment, modified bouganin molecules are identified with N-glycosidase activity, and in particular with sufficient activity to provide significant inhibition of protein translation. One such suitable assay involves testing the activity of the modified bouganin proteins in comparison to non-modified bouganin in a cell-free protein synthesis assay. A coupled transcription/translation mix containing methionine, DNA encoding the reporter protein luciferase and serial dilutions of non-modified and modified bouganin proteins are co-incubated. The levels of translated luciferase are readily detected using a luminescence counter following addition of a substrate reagent. The measured luminescence is inversely proportional to the bouganin N-glycosidase activity present in the reaction. It is usual to provide a negative control such as an in-active bouganin protein for example containing a Y70A substitution.
The activity of the wild-type and modified (mutant) bouganin proteins was tested by measuring their ability to inhibit protein synthesis in a cell-free protein synthesis assay.
A mixture of 10 μl TNT Coupled Transcription/Translation mix (Promega), 20 […] methionine, 120 ng pT7 luciferase DNA (Promega) and serial dilutions of WT and mutant bouganin protein in a final volume of 12.5 μl were incubated at 30° C. for one hour, after which the reaction was stopped by addition of 100 μl “SteadyGlow” luciferase assay reagent (Promega). The luciferase activity was measured using a Wallac luminescence counter. Active bouganin protein is detected as a decrease in measured luciferase activity. Each modified bouganin protein was tested in at least 5 concentrations, with each data point in duplicate. Positive and negative controls were included in each experiment.
In each instance results are expressed relative to wild-type protein activity.

| Substance | Activity in luciferase assay (single substitution variants) | further results |
| --- | --- | --- |
| Bou156: modified bouganin with V123A, D127A, Y133N, I152A (SEQ ID No 13) |  | Activity in luciferase assay (multiple substitution variants): ++; potency in cell-free assay (when conjugated to the Fab fragment (FIG. 12)): retained its potency |
| Bou157: modified bouganin with V123A, D127A, Y133Q, I152A (SEQ ID No 14) |  | Activity in luciferase assay (multiple substitution variants): ++ |
| D127A: modified bouganin protein with substitution D127A | ++ |  |
| D127G: modified bouganin protein with substitution D127G | ++ |  |
| E129G: modified bouganin protein with substitution E129G | ++ |  |
| E129K: modified bouganin protein with substitution E129K | −− |  |
| E129Q: modified bouganin protein with substitution E129Q | +/− (within 3-fold of WT activity.) |  |
| E129R: modified bouganin protein with substitution E129R | −− |  |
| E151T I152E | −− |  |
| F155H: modified bouganin protein with substitution F155H | −− |  |
| F155P: modified bouganin protein with substitution F155P | −− |  |
| I152A: modified bouganin protein with substitution I152A | ++ |  |
| I152E: modified bouganin protein with substitution I152E | −− |  |
| I152Q: modified bouganin protein with substitution I152Q | ++ |  |
| I158P: modified bouganin protein with substitution I158P | −− |  |
| V123A: modified bouganin protein with substitution V123A | ++ |  |
| V123D: modified bouganin protein with substitution V123D | −− |  |
| V123E: modified bouganin protein with substitution V123E | −− |  |
| V123G: modified bouganin protein with substitution V123G | −− |  |
| V123H: modified bouganin protein with substitution V123H | −− |  |

| Substance | Activity in luciferase assay (single substitution variants) | further results |
| --- | --- | --- |
| V123K: modified bouganin protein with substitution V123K | −− |  |
| V123N: modified bouganin protein with substitution V123N | −− |  |
| V123P: modified bouganin protein with substitution V123P | −− |  |
| V123Q: modified bouganin protein with substitution V123Q | ++ |  |
| V123R: modified bouganin protein with substitution V123R | −− |  |
| V123S: modified bouganin protein with substitution V123S | −− |  |
| V123T: modified bouganin protein with substitution V123T | +/− (within 3-fold of WT activity.) |  |
| Y70A: inactive bouganin with Y70A substitution, negative control (SEQ ID NO. 129) [reference compound] | −− |  |
| Y133A: modified bouganin protein with substitution Y133A | ++ |  |
| Y133D: modified bouganin protein with substitution Y133D | ++ |  |
| Y133E: modified bouganin protein with substitution Y133E | +/− (within 3-fold of WT activity.) |  |
| Y133G: modified bouganin protein with substitution Y133G | ++ |  |
| Y133H: modified bouganin protein with substitution Y133H | ++ |  |
| Y133K: modified bouganin protein with substitution Y133K | ++ |  |
| Y133N: modified bouganin protein with substitution Y133N | ++ |  |
| Y133P: modified bouganin protein with substitution Y133P | −− |  |
| Y133Q: modified bouganin protein with substitution Y133Q | ++ |  |
| Y133R: modified bouganin protein with substitution Y133R | ++ |  |
| Y133S: modified bouganin protein with substitution Y133S | ++ |  |
| Y133T: modified bouganin protein with substitution Y133T | ++ |  |

From US20050238642A1, “Modified bouganin proteins, cytotoxins and methods and uses thereof” (priority 2004, published 2005)
